Reference: patent US5110828A (priority 1988, dated 1992)
Structures can show the parent of a compound that is named as a salt. Where two headings read alike, the source gives them in different places.

Columns and labels:
muscarinic receptors [1] = test: Radio ligand binding, displacement of muscarinic agonist 3H-Oxotremorine-M (3H-OXO-M); design: species or system rat (Hooded Lister); settings: displacement of 2 nM 3H-OXO-M, rat cerebral cortex homogenate, 37° C., 30 min, 2 mM magnesium chloride
muscarinic receptors [2] = assay type: binding, rat (Hooded Lister); settings: displacement of 0.27 nM 3H-QNB, rat cerebral cortex homogenate, 37° C., 30 min

| SMILES | IC50 (muscarinic receptors [1]) | IC50 (muscarinic receptors [2]) |
| --- | --- | --- |
| CON=C(C)C1CN2CCC1CC2 (mixture of isomers) [E 3, (±) trans-3-Acetyl-1-azabicyclo[2.2.21octane-O-methyloxime hydrochloride salt] | 0.069 µM | 2 µM |
| CON=C(C)C12CCN(CC1)C2 [E 20, 4-Acetyl-1-azabicyclo[2.2.1]heptane-O-methyloxime oxalate salt] | 0.055 µM | 12.5 µM |
| C#CCON=C(C)C1CN2CCC1C2 (mixture of isomers) [E 15, (±)exo-3-Acetyl-1-azabicyclo2.2.1]heptane-trans-O-proparqyloxime hydrochloride salt] | 0.219 µM | 3.9 µM |
| C=CCON=C[C@@H]1CN2CC[C@@H]1C2 (relative stereo) [E 22, (±)exo-1-Azabicyclo2.2.1]hept-3-ylcarboxaldehyde, O-allyloxime oxalate salt] | 0.215 µM | 8.5 µM |
| CON=CC1CN2CCC1CC2 (racemic) [E 2, (±) 1-Azabicyclo[2.2.2]oct-3-ylcarboxaldehyde, O-methyloxime hydrochloride salt] | 0.095 µM | 10 µM |
| CCON=C[C@@H]1CN2CC[C@@H]1C2 (relative stereo) [E 8, (±) exo-1-Azabicyclo[2.2.1]hept-3-ylcarboxaldehyde, O-ethyloxime oxalate salt] | 0.16 µM | 5.6 µM |
| CON=C(C)C1CC2CCN(C2)C1 (racemic) [E 24, (±)exo-3-Acetyl-1-azabicyclo[3.2.1]octane-trans-O-methyloxime hydrochloride salt] | 0.32 µM | 7.3 µM |
| C#CCON=C[C@@H]1CN2CC[C@@H]1C2 (relative stereo) [E 9, (±) exo-1-Azabicyclo[2.2.11hept-3-ylcarboxaldehyde, O-proparqyloxime oxalate salt] | 0.024 µM | 2.7 µM |
| CON=C(C)C12CCCN(CC1)C2 (racemic) [E 6, (±) trans-5-Acetyl-1-azabicyclo[3.2.1]octane-O-methyloxime hydrochloride salt] | 0.046 µM | 4.4 µM |
| CON=C(C)C1CN2CCC1C2 (racemic) [E 13, (±)exo-3-Acetyl-1-azabicyclo[2.2.1]heptane-trans-O-methyloxime oxalate salt] | 0.099 µM | 9 µM |
| C#CCON=CC12CCN(CC1)C2 [E 21, syn-1-Azabicyclo[2.2.11hect-4-ylcarboxaldehyde, O-proparqyloxime oxalate salt] | 0.352 µM | 21 µM |
| CON=C[C@H]1C[C@@H]2CCN(C1)C2 (relative stereo) [E 23, (±)exo-1-Azabicyclo[3.2.11oct-3-ylcarboxaldehyde, O-methyloxime hydrochloride salt] | 0.24 µM | 5.57 µM |
| CON=C[C@@H]1CN2CC[C@@H]1C2 (relative stereo) [E 7, (±) exo-1-Azabicyclo[2.2.1]hept-3-ylcarboxaldehyde, O-methyloxime oxalate salt] | 0.014 µM | 4.8 µM |
| C#CCON=CC1CN2CCC1CC2 (racemic) [E 17, (±)1-Azabicyclo[2.2.21oct-3-ylcarboxaldehyde, O-proparqyloxime hydrochloride salt] | 0.19 µM | 2.45 µM |
| CON=CC12CCCN(CC1)C2 (mixture of isomers) [E 1, (±) syn-1-Azabicyclo[3,2,1]oct-5-ylcarboxaldehyde, O-methyloxime hydrochloride salt] | 0.073 µM | 5.2 µM |
| CCC(=NOC)C1CN2CCC1C2 (mixture of isomers) [E 16, (±)exo-3-Propan-1-one-1-azabicyclo2.2.11heptane-trans-O-methyloxime hydrochloride salt] | 0.204 µM | 3.4 µM |
| CON=CC12CCN(CC1)C2 [E 19, syn-1-Azabicyclo[2.2.1]hept-4-ylcarboxaldehyde, O-methyloxime hydrochloride salt] | 0.118 µM | 40 µM |
